Patent publication US9931313B2, “Methods of treating proliferative disorders with malate or derivatives thereof” (Beth Israel Deaconess Medical Center, Inc., priority 2012, dated 2018)

Assays:
[1] = tested on: A549 cells; assay: Cisplatin treatment of A549 cells with or without ME2 knockdown, trypan blue count; type: cell-based, human; settings: 20 μM cisplatin, 72 h
Description: ME2 knockdown and control cells were plated in 6-well plates, and 24 h later, the cell were treated with 20 μM cisplatin. After 72 h, cells were stained with trypan blue and live cells were counted. […] Approximately 5×10^6 ME2 deficient cells from ME2 specific shRNA or control pLKO cells were subcutaneously implanted into female athymic nude mice as described in Materials and Methods. Tumor size was measured and calculated. C: Depletion of ME2 inhibits mucin-1 and vimentin expression and increase differentiation marker E-cadherin and ZO-1 expression in vivo.

[2] = tested on: A549 xenograft tumors; assay: Cisplatin treatment of xenograft tumors from wild type and ME2 knockdown A549 cells; type: in vivo, athymic nude mice
Description: ME2 knockdown and control cells were plated in 6-well plates, and 24 h later, the cell were treated with 20 μM cisplatin. After 72 h, cells were stained with trypan blue and live cells were counted. […] Approximately 5×10^6 ME2 deficient cells from ME2 specific shRNA or control pLKO cells were subcutaneously implanted into female athymic nude mice as described in Materials and Methods. Tumor size was measured and calculated. C: Depletion of ME2 inhibits mucin-1 and vimentin expression and increase differentiation marker E-cadherin and ZO-1 expression in vivo. Animal experiments were performed under federal guidelines and approved by the Institutional Animal Care and Use Committee (IACUC) of the Beth Israel Deaconess Medical Center (Approval number 0342007). A549 xenografts in nude mice were generated by following the description of […] et al., in Biochem. Pharmacol. 72: 671-680 (2006). Briefly, approximately 10^7 ME2 deficient or control A549 cells resuspended in 200 μl of a serum-free culture medium/Matrigel mixture (1:1) were subcutaneously injected into the right and left flanks of male nude/nu/nu athymic mice, respectively. Tumor-bearing mice were sacrificed after 6-8 weeks and tumor masses were measured or imaged before excision. […]

[3] = tested on: K562 cell; settings: supplementation; Ren et al., PLoS One 5 (2010); cited from earlier work

Row | SMILES | sensitivity of A549 cells to cisplatin treatment with ME2 deficiency [1] | later growth of ME2 knockdown tumors (resumed at about 350 mm^3) ([2]; ME2 knockdown A549 xenografts) | E-cadherin and mucin-1 expression in vivo ([2]; combination of ME2 depletion and cisplatin) | K562 cell differentiation [3]
1 | N.N.[Cl][Pt][Cl] [cisplatin] | increased the sensitivity | prevent this later tumor growth | affected | 
2 | O=C([O-])CC(O)C(=O)[O-].[Na+].[Na+] (stereo not shown) [sodium malate] |  |  |  | failed to induce
